In ChEMBL document CHEMBL1201862, “PubChem BioAssay data set” (2004):
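The compound was tested at five concentrations on cells cultured in 96-well plates, with a 48-hour exposure period. GI50: concentration for 50% inhibition of growth.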 Calls of active or inactive are those of the source. Rule as the data show it: active = GI50 up to about 1.1 µM and inactive = higher.

Tests used:
Experiment in all cases: growth of human tumour cells (NCI), 48 h
SF-268 = tested on: SF-268
SF-295 = tested on: SF-295
ACHN = tested on: ACHN
NCI-H226 = tested on: NCI-H226
NCI-H460 = tested on: NCI-H460
HCT-116 = tested on: HCT-116
786-0 = tested on: 786-0
MCF7 = tested on: MCF7
PC-3 = tested on: PC-3
DU-145 = tested on: DU-145
SW-620 = tested on: SW-620
SNB-75 = tested on: SNB-75
NCI-H522 = tested on: NCI-H522
U-251 = tested on: U-251
HCT-15 = tested on: HCT-15
NCI/ADR-RES = tested on: NCI/ADR-RES
TK-10 = tested on: TK-10
SN12C = tested on: SN12C
HCC 2998 = tested on: HCC 2998
MOLT-4 = tested on: MOLT-4
OVCAR-4 = tested on: OVCAR-4
SK-MEL-5 = tested on: SK-MEL-5
K562 = tested on: K562
Malme-3M = tested on: Malme-3M
SK-MEL-2 = tested on: SK-MEL-2
HOP-92 = tested on: HOP-92
MDA-N = tested on: MDA-N
SK-OV-3 = tested on: SK-OV-3
NCI-H23 = tested on: NCI-H23
RXF 393 = tested on: RXF 393
OVCAR-5 = tested on: OVCAR-5
IGROV-1 = tested on: IGROV-1
CAKI-1 = tested on: CAKI-1
SK-MEL-28 = tested on: SK-MEL-28
MDA-MB-231 = tested on: MDA-MB-231
BT-549 = tested on: BT-549
UACC-257 = tested on: UACC-257
RPMI-8226 = tested on: RPMI-8226
UO-31 = tested on: UO-31
EKVX = tested on: EKVX
KM12 = tested on: KM12
MDA-MB-435 = tested on: MDA-MB-435
M14 = tested on: M14
UACC-62 = tested on: UACC-62
COLO 205 = tested on: COLO 205
A498 = tested on: A498
A549 = tested on: A549
HT-29 = tested on: HT-29
SNB-19 = tested on: SNB-19
CCRF-CEM = tested on: CCRF-CEM
Hs-578T = tested on: Hs-578T
HOP-62 = tested on: HOP-62
OVCAR-8 = tested on: OVCAR-8
SR = tested on: SR
SF-539 = tested on: SF-539
OVCAR-3 = tested on: OVCAR-3
HL-60 = tested on: HL-60

Measured: GI50

Clc1ccc(OCc2nnc(CCCCCCCCc3nnc(COc4ccc(Cl)cc4Cl)o3)o2)c(Cl)c1
inactive: SF-268 42 µM | SF-295 85.1 µM | ACHN > 100 µM | NCI-H226 > 100 µM | NCI-H460 79.6 µM | HCT-116 15.7 µM | 786-0 47.1 µM | MCF7 42.3 µM | PC-3 60.3 µM | DU-145 85.9 µM | SW-620 > 100 µM | SNB-75 > 100 µM | NCI-H522 18.7 µM | U-251 > 100 µM | NCI/ADR-RES 76.6 µM | TK-10 > 100 µM | SN12C > 100 µM | HCC 2998 > 100 µM | MOLT-4 14.3 µM | OVCAR-4 92.9 µM | SK-MEL-5 > 100 µM | K562 18.2 µM | Malme-3M 9.44 µM | SK-MEL-2 > 100 µM | HOP-92 41.1 µM | MDA-N > 100 µM | SK-OV-3 > 100 µM | NCI-H23 > 100 µM | RXF 393 > 100 µM | OVCAR-5 > 100 µM | IGROV-1 9.4 µM | CAKI-1 24.6 µM | SK-MEL-28 > 100 µM | MDA-MB-231 > 100 µM | BT-549 > 100 µM | UACC-257 > 100 µM | RPMI-8226 58.9 µM | UO-31 44.1 µM | EKVX > 100 µM | KM12 95.1 µM | MDA-MB-435 > 100 µM | M14 > 100 µM | UACC-62 > 100 µM | COLO 205 > 100 µM | A498 > 100 µM | A549 49.2 µM | HT-29 > 100 µM | SNB-19 69.3 µM
97.5 µM: HCT-15

Cc1cc(NS(=O)(=O)c2ccc(/N=N/c3c(O)c(C(=O)O)cc4ccccc34)cc2)nc(C)n1
inactive: SF-268 > 100 µM | CCRF-CEM > 100 µM | Hs-578T > 100 µM | SF-295 > 100 µM | ACHN > 100 µM | NCI-H226 > 100 µM | NCI-H460 > 100 µM | HCT-116 > 100 µM | 786-0 > 100 µM | MCF7 > 100 µM | PC-3 > 100 µM | SW-620 > 100 µM | SNB-75 > 100 µM | NCI-H522 > 100 µM | U-251 > 100 µM | NCI/ADR-RES > 100 µM | TK-10 > 100 µM | HCC 2998 > 100 µM | MOLT-4 > 100 µM | OVCAR-4 > 100 µM | SK-MEL-5 > 100 µM | K562 > 100 µM | Malme-3M > 100 µM | SK-MEL-2 > 100 µM | HOP-92 > 100 µM | SK-OV-3 > 100 µM | RXF 393 > 100 µM | OVCAR-5 > 100 µM | HOP-62 > 100 µM | IGROV-1 > 100 µM | CAKI-1 > 100 µM | SK-MEL-28 > 100 µM | OVCAR-8 > 100 µM | MDA-MB-231 > 100 µM | BT-549 > 100 µM | UACC-257 > 100 µM | RPMI-8226 > 100 µM | UO-31 > 100 µM | EKVX > 100 µM | KM12 > 100 µM | MDA-MB-435 > 100 µM | SR > 100 µM | M14 > 100 µM | UACC-62 > 100 µM | COLO 205 > 100 µM | SF-539 > 100 µM | A549 > 100 µM | HT-29 > 100 µM | OVCAR-3 > 100 µM | HL-60 > 100 µM | SNB-19 > 100 µM
> 100 µM: HCT-15
